Data published in ChEMBL document CHEMBL1221346, “Synthesis and biological activity of N-substituted aminocarbonyl-1,3-dioxolanes as VLA-4 antagonists” (Bioorg Med Chem Lett, 2010).
Peptide text beside a SMILES is read from it. * marks the point of attachment. Tos = Cc1ccc(S(=O)(=O)*)cc1

biological target: T1, Integrin alpha-4 (Homo sapiens, UniProt P13612); assay: Displacement of VCAM1 from VLA4 receptor in human U937 cells; assay type: cell-based, U-937; conditions: not given
T1 sequence (P13612 whole entry): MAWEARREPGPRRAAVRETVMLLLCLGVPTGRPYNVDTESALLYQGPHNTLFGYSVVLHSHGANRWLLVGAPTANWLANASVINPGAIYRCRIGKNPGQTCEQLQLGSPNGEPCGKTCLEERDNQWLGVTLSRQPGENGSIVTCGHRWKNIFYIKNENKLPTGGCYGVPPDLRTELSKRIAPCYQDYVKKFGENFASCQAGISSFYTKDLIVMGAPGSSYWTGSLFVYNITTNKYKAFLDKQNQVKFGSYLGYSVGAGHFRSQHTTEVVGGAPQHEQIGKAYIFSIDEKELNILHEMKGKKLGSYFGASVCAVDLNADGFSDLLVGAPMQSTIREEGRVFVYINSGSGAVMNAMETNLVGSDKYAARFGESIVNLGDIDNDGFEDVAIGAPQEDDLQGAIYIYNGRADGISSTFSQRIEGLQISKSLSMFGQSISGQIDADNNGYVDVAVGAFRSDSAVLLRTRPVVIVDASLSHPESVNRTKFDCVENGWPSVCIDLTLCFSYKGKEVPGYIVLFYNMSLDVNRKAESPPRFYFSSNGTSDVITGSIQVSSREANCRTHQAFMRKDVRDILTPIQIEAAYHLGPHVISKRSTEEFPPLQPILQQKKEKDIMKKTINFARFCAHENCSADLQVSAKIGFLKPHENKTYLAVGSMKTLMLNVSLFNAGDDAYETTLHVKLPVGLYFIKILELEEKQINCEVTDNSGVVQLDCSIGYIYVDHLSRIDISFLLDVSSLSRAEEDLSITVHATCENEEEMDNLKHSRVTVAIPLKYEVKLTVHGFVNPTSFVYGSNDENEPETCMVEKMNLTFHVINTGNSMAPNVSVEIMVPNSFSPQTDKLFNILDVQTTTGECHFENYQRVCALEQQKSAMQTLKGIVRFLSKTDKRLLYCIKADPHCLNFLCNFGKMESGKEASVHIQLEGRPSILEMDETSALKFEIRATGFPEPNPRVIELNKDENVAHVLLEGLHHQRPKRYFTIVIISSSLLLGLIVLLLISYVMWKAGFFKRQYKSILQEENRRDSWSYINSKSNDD

SMILES	IC50
CCCCCCCNC(=O)[C@@H]1OCO[C@H]1C(=O)N[C@@H](Cc1ccc(OCc2c(Cl)cccc2Cl)cc1)C(=O)O	4400 nM
O=C(Nc1ccc(C[C@H](NC(=O)[C@@H]2OCO[C@H]2C(=O)Nc2ccccc2-c2ccccc2)C(=O)O)cc1)c1ccncc1	2700 nM
O=C(Nc1ccc(C[C@H](NC(=O)[C@@H]2OCO[C@H]2C(=O)Nc2ccccc2-c2ccccc2)C(=O)O)cc1)c1ccccn1	8300 nM
O=C(Nc1ccc(C[C@H](NC(=O)[C@@H]2OCO[C@H]2C(=O)Nc2ccccc2-c2ccccc2)C(=O)O)cc1)c1cccnc1	9500 nM
O=C(Nc1ccc(C[C@H](NC(=O)[C@@H]2OCO[C@H]2C(=O)Nc2ccccc2-c2ccccc2)C(=O)O)cc1)c1cc(Cl)nc(Cl)c1	6300 nM
O=C(Nc1ccc(C[C@H](NC(=O)[C@@H]2OCO[C@H]2C(=O)Nc2ccccc2-c2ccccc2)C(=O)O)cc1)c1c(Cl)cccc1Cl	100 nM
O=C(Nc1ccc(C[C@H](NC(=O)[C@@H]2OCO[C@H]2C(=O)Nc2ccccc2-c2ccccc2)C(=O)O)cc1)c1ccccc1	9000 nM
COc1ccccc1C(=O)Nc1ccc(C[C@H](NC(=O)[C@@H]2OCO[C@H]2C(=O)Nc2ccccc2-c2ccccc2)C(=O)O)cc1	6300 nM
O=C(O)[C@H](Cc1ccc(OCc2c(F)cccc2F)cc1)NC(=O)[C@@H]1OCO[C@H]1C(=O)Nc1ccccc1-c1ccccc1	7900 nM
O=C(O)[C@H](Cc1ccc(OCc2ccccc2Cl)cc1)NC(=O)[C@@H]1OCO[C@H]1C(=O)Nc1ccccc1-c1ccccc1	8700 nM
O=C(O)[C@H](Cc1ccc(OCc2c(Cl)cccc2Cl)cc1)NC(=O)[C@@H]1OCO[C@H]1C(=O)Nc1ccccc1-c1ccccc1	500 nM
O=C(O)[C@H](Cc1ccc(OCc2c(Cl)cccc2Cl)cc1)NC(=O)[C@@H]1OCO[C@H]1C(=O)NC1CCCCC1	1400 nM
CNC(=O)[C@@H]1OCO[C@H]1C(=O)N[C@@H](Cc1ccc(OCc2c(Cl)cccc2Cl)cc1)C(=O)O	1200 nM
CCNC(=O)[C@@H]1OCO[C@H]1C(=O)N[C@@H](Cc1ccc(OCc2c(Cl)cccc2Cl)cc1)C(=O)O	2100 nM
CCCCNC(=O)[C@@H]1OCO[C@H]1C(=O)N[C@@H](Cc1ccc(OCc2c(Cl)cccc2Cl)cc1)C(=O)O	1500 nM
CC(C)CCNC(=O)[C@@H]1OCO[C@H]1C(=O)N[C@@H](Cc1ccc(OCc2c(Cl)cccc2Cl)cc1)C(=O)O	1100 nM
CN(C)C(=O)[C@@H]1OCO[C@H]1C(=O)N[C@@H](Cc1ccc(OCc2c(Cl)cccc2Cl)cc1)C(=O)O	1500 nM
CC(C)NC(=O)[C@@H]1OCO[C@H]1C(=O)N[C@@H](Cc1ccc(OCc2c(Cl)cccc2Cl)cc1)C(=O)O	6600 nM
CC(C)(C)NC(=O)[C@@H]1OCO[C@H]1C(=O)N[C@@H](Cc1ccc(OCc2c(Cl)cccc2Cl)cc1)C(=O)O	1200 nM

SMILES	IC50
O=C(O)[C@H](Cc1ccc(OCc2c(Cl)cccc2Cl)cc1)NC(=O)[C@@H]1OCO[C@H]1C(=O)NC1CC1	300 nM
O=C(O)[C@H](Cc1ccc(OCc2c(Cl)cccc2Cl)cc1)NC(=O)[C@@H]1OCO[C@H]1C(=O)Nc1nc2ccccc2s1	600 nM
O=C(O)[C@H](Cc1ccc(OCc2c(Cl)cccc2Cl)cc1)NC(=O)[C@@H]1OCO[C@H]1C(=O)NCc1cccs1	700 nM
O=C(O)[C@H](Cc1ccc(OCc2c(Cl)cccc2Cl)cc1)NC(=O)[C@@H]1OCO[C@H]1C(=O)NCCc1c[nH]c2ccccc12	600 nM
O=C(O)[C@H](Cc1ccc(OCc2c(Cl)cccc2Cl)cc1)NC(=O)[C@@H]1OCO[C@H]1C(=O)NCc1ccc2c(c1)OCO2	3000 nM
O=C(O)[C@H](Cc1ccc(OCc2c(Cl)cccc2Cl)cc1)NC(=O)[C@@H]1OCO[C@H]1C(=O)Nc1ccccc1F	600 nM
O=C(O)[C@H](Cc1ccc(OCc2c(Cl)cccc2Cl)cc1)NC(=O)[C@@H]1OCO[C@H]1C(=O)Nc1ccccc1Cl	700 nM
O=C(O)[C@H](Cc1ccc(OCc2c(Cl)cccc2Cl)cc1)NC(=O)[C@@H]1OCO[C@H]1C(=O)Nc1ccc(Cl)cc1	2800 nM
COc1ccccc1NC(=O)[C@@H]1OCO[C@H]1C(=O)N[C@@H](Cc1ccc(OCc2c(Cl)cccc2Cl)cc1)C(=O)O	600 nM
O=C(O)[C@H](Cc1ccc(OCc2c(Cl)cccc2Cl)cc1)NC(=O)[C@@H]1OCO[C@H]1C(=O)Nc1ccccc1	1500 nM
O=C(O)[C@H](Cc1ccc(OCc2c(Cl)cccc2Cl)cc1)NC(=O)[C@@H]1OCO[C@H]1C(=O)Nc1ccccc1C(F)(F)F	900 nM
O=C(O)[C@H](Cc1ccc(OCc2c(Cl)cccc2Cl)cc1)NC(=O)[C@@H]1OCO[C@H]1C(=O)Nc1nccs1	200 nM
Cc1nnc(NC(=O)[C@@H]2OCO[C@H]2C(=O)N[C@@H](Cc2ccc(OCc3c(Cl)cccc3Cl)cc2)C(=O)O)s1	1500 nM
O=C(O)[C@H](Cc1ccc(OCc2c(Cl)cccc2Cl)cc1)NC(=O)[C@@H]1OCO[C@H]1C(=O)Nc1c(F)cccc1F	500 nM
O=C(O)[C@H](Cc1ccc(OCc2c(Cl)cccc2Cl)cc1)NC(=O)[C@@H]1OCO[C@H]1C(=O)Nc1c(Cl)cccc1Cl	700 nM
O=C(O)[C@H](Cc1ccc(OCc2c(Cl)cccc2Cl)cc1)NC(=O)[C@@H]1OCO[C@H]1C(=O)Nc1c(Cl)cncc1Cl	400 nM
CC(C)(C)c1cc(NC(=O)[C@@H]2OCO[C@H]2C(=O)N[C@@H](Cc2ccc(OCc3c(Cl)cccc3Cl)cc2)C(=O)O)n(Cc2ccccc2)n1	1000 nM
Cc1ccc(-n2nc(C(C)(C)C)cc2NC(=O)[C@@H]2OCO[C@H]2C(=O)N[C@@H](Cc2ccc(OCc3c(Cl)cccc3Cl)cc2)C(=O)O)cc1	2600 nM
O=C(O)[C@H](Cc1ccc(OCc2c(Cl)cccc2Cl)cc1)NC(=O)[C@@H]1OCO[C@H]1C(=O)N1CCOCC1	3400 nM

test system: not listed separately; assay: Oral bioavailability in rat; assay type: ADME, organism-based; conditions: in vivo

SMILES	bioavailability
Cc1ccc(S(=O)(=O)N2CCC[C@H]2C(=O)N[C@@H](Cc2ccccc2)C(=O)O)cc1 (Tos-Pro-Phe-OH)	10%

test system: not listed separately; assay: Metabolic stability in human liver microsome at 8 uM after 1 hr; assay type: ADME; conditions: liver microsomes, read-out: Stability

SMILES	remaining at 1 h, 8 µM
O=C(O)[C@H](Cc1ccc(OCc2c(Cl)cccc2Cl)cc1)NC(=O)[C@@H]1OCO[C@H]1C(=O)NC1CC1	72%
O=C(O)[C@H](Cc1ccc(OCc2c(Cl)cccc2Cl)cc1)NC(=O)[C@@H]1OCO[C@H]1C(=O)Nc1nccs1	52%
